Calls of active or inactive are those of the source. The rule behind the calls is not given here.
How the values were obtained:
C6 = assay: Cytotoxicity against rat C6 cells assessed as reduction in cell viability after 72 hrs by MTT assay; type: functional, cell-based; settings: C6, 72 h
HaCaT = assay: Cytotoxicity against human HaCaT cells assessed as reduction in cell viability after 72 hrs by MTT assay; type: cell-based
CNE = assay: Cytotoxicity against human CNE1 cells assessed as reduction in cell viability after 72 hrs by MTT assay; type: functional, cell-based
[1] = Cytotoxicity against human NCI-EC1 cells assessed as reduction in cell viability after 72 hrs by MTT assay; type: functional, cell-based
MDA-MB-231 = assay: Cytotoxicity against human MDA-MB-231 cells assessed as reduction in cell viability after 72 hrs by MTT assay; type: functional, cell-based; settings: MDA-MB-231, 72 h
MCF7 = assay: Cytotoxicity against human MCF7 cells assessed as reduction in cell viability after 72 hrs by MTT assay; type: functional, cell-based; settings: MCF7, 72 h
HepG2 = assay: Cytotoxicity against human HepG2 cells assessed as reduction in cell viability after 72 hrs by MTT assay; type: functional, cell-based; settings: HepG2, 72 h
[2] = Octanol-water partition coefficient, log P of the compound at 10 mM after 24 hrs by UV-vis spectroscopic method; type: physicochemical
Quadruplex DNA [3] = assay: Effect on conformation of c-Myc G-quadruplex DNA (unknown origin) at 1 mM measured every 3 mins by CD spectroscopic analysis; type: nucleic-acid assay
Quadruplex DNA [4] = assay: Binding affinity to c-Myc G-quadruplex DNA (unknown origin) at 20 uM incubated for 3 mins by electronic absorption spectra method; type: nucleic-acid assay
Quadruplex DNA [5] = assay: Binding affinity to c-Myc G-quadruplex DNA (unknown origin) assessed as hypochromism at 20 uM incubated for 3 mins by electronic absorption spectra method; type: nucleic-acid assay
Quadruplex DNA [6] = assay: Binding affinity to c-Myc G-quadruplex DNA (unknown origin) at 20 uM incubated for 2 mins by fluorescence emission spectra method; type: nucleic-acid assay

Row | logP at 24 h, 10000 µM [2] | Activity (Quadruplex DNA [3]) | K (Quadruplex DNA [4]) | Activity (Quadruplex DNA [5]) | Activity (Quadruplex DNA [6]) | Compound | IC50 (C6) | IC50 (HaCaT) | IC50 (CNE) | IC50 [1] | IC50 (MDA-MB-231) | IC50 (MCF7) | IC50 (HepG2)
1 | 1.33 |  |  |  |  | CCOC1OC(=O)C(Cl)=C1Nc1ccc(-c2ccccc2)cc1 (stereo not given) | 47.9 µM | 49.8 µM | 47 µM | 56 µM | 38.5 µM | 44.6 µM | 40.1 µM
2 | 1.31 | inactive | 9.4 ×10⁶ /M | 17% | Active | CC(=O)OC1OC(=O)C(Br)=C1Nc1ccc(-c2ccccc2)cc1 (stereo not given) | 44.4 µM | 91.4 µM | 81.7 µM | 34.9 µM | 60.2 µM | 37.3 µM | 27.4 µM
